Laboratory results published in US4003891A, “Preparation of metal complexes of 6-methoxy-1-phenazinol 5,10 dioxide” (Hoffmann-La Roche Inc., priority 1975, dated 1977).

Legend:
S. agalactiae = experiment: In vivo anti-microbial efficacy against bacteria (ED50')
Experimental: (§1) For example, the anti-microbial activity of calcium myxin dihydrate, prepared by the method of this invention, is evaluated and compared to that of myxin itself both in vivo against 4 strains of bacteria and in vitro against yeast and fungus infections.

P. aeruginosa = experiment: as above
Experimental: as §1

E. coli = experiment: as above
Experimental: as §1

S. aureus = experiment: as above
Experimental: as §1

Solubility in water = type: physicochemical

Compound	ED50' (S. agalactiae)	ED50' (P. aeruginosa)	ED50' (E. coli)	ED50' (S. aureus)	solubility in water (Solubility in water)
6-methoxy-1-phenazinol 5,10-dioxide, calcium dihydrate complex [Calcium Myxin Dihydrate]	< 4 µg/mL	20 µg/mL	60 µg/mL	< 20 µg/mL	
COc1cccc2c1[n+]([O-])c1cccc(O)c1[n+]2[O-] [Myxin, 6-methoxy-1-phenazinol 5,10-dioxide]					very slightly soluble
